# Measurements reported in ChEMBL document CHEMBL1201862, “PubChem BioAssay data set” (2004).
#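 Five concentrations, 48 hours, 96-well plates. The concentration for 50% growth inhibition is given as GI50.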 The source made the active and inactive calls. No stated cut-off is given here; in the data, active = GI50 up to about 1.1 µM and inactive = higher.
# Assays:
# Assay in all cases: NCI-60 cell line screen, 48 h
# HCC 2998 = system: HCC 2998
# DU-145 = system: DU-145
# EKVX = system: EKVX
# SF-295 = system: SF-295
# MOLT-4 = system: MOLT-4
# NCI-H226 = system: NCI-H226
# HT-29 = system: HT-29
# A549 = system: A549
# HOP-62 = system: HOP-62
# NCI/ADR-RES = system: NCI/ADR-RES
# COLO 205 = system: COLO 205
# HCT-116 = system: HCT-116
# NCI-H522 = system: NCI-H522
# A498 = system: A498
# OVCAR-4 = system: OVCAR-4
# BT-549 = system: BT-549
# Malme-3M = system: Malme-3M
# K562 = system: K562
# UO-31 = system: UO-31
# SK-MEL-2 = system: SK-MEL-2
# SNB-19 = system: SNB-19
# OVCAR-5 = system: OVCAR-5
# RPMI-8226 = system: RPMI-8226
# RXF 393 = system: RXF 393
# MDA-MB-231 = system: MDA-MB-231
# NCI-H460 = system: NCI-H460
# IGROV-1 = system: IGROV-1
# CAKI-1 = system: CAKI-1
# CCRF-CEM = system: CCRF-CEM
# OVCAR-8 = system: OVCAR-8
# KM12 = system: KM12
# MCF7 = system: MCF7
# OVCAR-3 = system: OVCAR-3
# UACC-62 = system: UACC-62
# SK-OV-3 = system: SK-OV-3
# LOX IMVI = system: LOX IMVI
# SR = system: SR
# UACC-257 = system: UACC-257
# PC-3 = system: PC-3
# U-251 = system: U-251
# SF-539 = system: SF-539
# HL-60 = system: HL-60
# NCI-H23 = system: NCI-H23
# ACHN = system: ACHN
# M14 = system: M14
# SN12C = system: SN12C
# 786-0 = system: 786-0
# MDA-N = system: MDA-N
# SNB-75 = system: SNB-75
# HOP-92 = system: HOP-92
# SK-MEL-28 = system: SK-MEL-28
# SW-620 = system: SW-620
# SK-MEL-5 = system: SK-MEL-5
# MDA-MB-435 = system: MDA-MB-435
# Hs-578T = system: Hs-578T
# HCT-15 = system: HCT-15
# TK-10 = system: TK-10
smiles,measurement,setting,value
Nc1ccc2c3c1cccc3c(=O)n1c3ccc(Cc4ccc5c(c4)nc4c6ccc(N)c7cccc(c(=O)n54)c76)cc3nc21,GI50,HCC 2998,> 100 µM (inactive)
same,GI50,DU-145,> 100 µM (inactive)
same,GI50,EKVX,> 100 µM (inactive)
same,GI50,SF-295,> 100 µM (inactive)
same,GI50,MOLT-4,> 100 µM (inactive)
same,GI50,NCI-H226,> 100 µM (inactive)
same,GI50,HT-29,> 100 µM (inactive)
same,GI50,A549,> 100 µM (inactive)
same,GI50,HOP-62,> 100 µM (inactive)
same,GI50,NCI/ADR-RES,> 100 µM (inactive)
same,GI50,COLO 205,> 100 µM (inactive)
same,GI50,HCT-116,> 100 µM (inactive)
same,GI50,NCI-H522,> 100 µM (inactive)
same,GI50,A498,> 100 µM (inactive)
same,GI50,OVCAR-4,> 100 µM (inactive)
same,GI50,BT-549,> 100 µM (inactive)
same,GI50,Malme-3M,> 100 µM (inactive)
same,GI50,K562,> 100 µM (inactive)
same,GI50,UO-31,> 100 µM (inactive)
same,GI50,SK-MEL-2,> 100 µM (inactive)
same,GI50,SNB-19,> 100 µM (inactive)
same,GI50,OVCAR-5,> 100 µM (inactive)
same,GI50,RPMI-8226,> 100 µM (inactive)
same,GI50,RXF 393,> 100 µM (inactive)
same,GI50,MDA-MB-231,> 100 µM (inactive)
same,GI50,NCI-H460,> 100 µM (inactive)
same,GI50,IGROV-1,> 100 µM (inactive)
same,GI50,CAKI-1,> 100 µM (inactive)
same,GI50,CCRF-CEM,> 100 µM (inactive)
same,GI50,OVCAR-8,> 100 µM (inactive)
same,GI50,KM12,> 100 µM (inactive)
same,GI50,MCF7,> 100 µM (inactive)
same,GI50,OVCAR-3,> 100 µM (inactive)
same,GI50,UACC-62,> 100 µM (inactive)
same,GI50,SK-OV-3,> 100 µM (inactive)
same,GI50,LOX IMVI,> 100 µM (inactive)
same,GI50,SR,> 100 µM (inactive)
same,GI50,UACC-257,> 100 µM (inactive)
same,GI50,PC-3,> 100 µM (inactive)
same,GI50,U-251,> 100 µM (inactive)
same,GI50,SF-539,> 100 µM (inactive)
same,GI50,HL-60,> 100 µM (inactive)
same,GI50,NCI-H23,> 100 µM (inactive)
same,GI50,ACHN,> 100 µM (inactive)
same,GI50,M14,> 100 µM (inactive)
same,GI50,SN12C,> 100 µM (inactive)
same,GI50,786-0,> 100 µM (inactive)
same,GI50,MDA-N,> 100 µM (inactive)
same,GI50,SNB-75,30.8 µM (inactive)
same,GI50,HOP-92,> 100 µM (inactive)
same,GI50,SK-MEL-28,> 100 µM (inactive)
same,GI50,SW-620,> 100 µM (inactive)
same,GI50,SK-MEL-5,> 100 µM (inactive)
same,GI50,MDA-MB-435,> 100 µM (inactive)
c1cncc(-c2ncc3cccnc3n2)c1,GI50,HCC 2998,> 100 µM (inactive)
same,GI50,DU-145,43.4 µM (inactive)
same,GI50,EKVX,> 100 µM (inactive)
same,GI50,Hs-578T,> 100 µM (inactive)
same,GI50,HCT-15,> 100 µM
same,GI50,SF-295,> 100 µM (inactive)
same,GI50,MOLT-4,> 100 µM (inactive)
same,GI50,NCI-H226,> 100 µM (inactive)
same,GI50,HT-29,> 100 µM (inactive)
same,GI50,A549,> 100 µM (inactive)
same,GI50,HOP-62,> 100 µM (inactive)
same,GI50,NCI/ADR-RES,> 100 µM (inactive)
same,GI50,COLO 205,> 100 µM (inactive)
same,GI50,HCT-116,> 100 µM (inactive)
same,GI50,NCI-H522,> 100 µM (inactive)
same,GI50,A498,> 100 µM (inactive)
same,GI50,OVCAR-4,> 100 µM (inactive)
same,GI50,BT-549,> 100 µM (inactive)
same,GI50,Malme-3M,> 100 µM (inactive)
same,GI50,K562,> 100 µM (inactive)
same,GI50,TK-10,> 100 µM (inactive)
same,GI50,UO-31,> 100 µM (inactive)
same,GI50,SK-MEL-2,> 100 µM (inactive)
same,GI50,SNB-19,> 100 µM (inactive)
same,GI50,OVCAR-5,> 100 µM (inactive)
same,GI50,RPMI-8226,> 100 µM (inactive)
same,GI50,RXF 393,> 100 µM (inactive)
same,GI50,MDA-MB-231,> 100 µM (inactive)
same,GI50,NCI-H460,> 100 µM (inactive)
same,GI50,IGROV-1,> 100 µM (inactive)
same,GI50,CAKI-1,> 100 µM (inactive)
same,GI50,CCRF-CEM,> 100 µM (inactive)
same,GI50,OVCAR-8,> 100 µM (inactive)
same,GI50,KM12,> 100 µM (inactive)
same,GI50,MCF7,> 100 µM (inactive)
same,GI50,OVCAR-3,> 100 µM (inactive)
same,GI50,UACC-62,> 100 µM (inactive)
same,GI50,SK-OV-3,> 100 µM (inactive)
same,GI50,LOX IMVI,> 100 µM (inactive)
same,GI50,UACC-257,> 100 µM (inactive)
same,GI50,PC-3,> 100 µM (inactive)
same,GI50,U-251,> 100 µM (inactive)
same,GI50,SF-539,> 100 µM (inactive)
same,GI50,HL-60,> 100 µM (inactive)
same,GI50,NCI-H23,> 100 µM (inactive)
same,GI50,ACHN,> 100 µM (inactive)
same,GI50,SN12C,> 100 µM (inactive)
same,GI50,786-0,> 100 µM (inactive)
same,GI50,MDA-N,> 100 µM (inactive)
same,GI50,SNB-75,> 100 µM (inactive)
same,GI50,HOP-92,> 100 µM (inactive)
same,GI50,SW-620,> 100 µM (inactive)
same,GI50,SK-MEL-5,> 100 µM (inactive)
